From the NIST ThermoML archive (doi:10.1016/j.jct.2016.08.008)
Numbers after ± are expanded uncertainties.

Test: activity coefficient (dimensionless); of the first substance listed, at infinite dilution; xn = mol fraction of the nth substance listed
Settings: 101.33 kPa, Liquid, Chromatography, x1 = 0

Structure (SMILES)	activity coefficient (318.15 K)	activity coefficient (328.15 K)	activity coefficient (338.15 K)	activity coefficient (348.15 K)	activity coefficient (358.15 K)	activity coefficient (368.15 K)
COC(C)=O [methyl ethanoate] + CCCCCCCCCCCCn1cc[n+](C)c1.O=S(=O)([N-]S(=O)(=O)C(F)(F)F)C(F)(F)F	0.503 ± 0.038	0.525 ± 0.039	0.546 ± 0.04	0.566 ± 0.041	0.586 ± 0.042	0.606 ± 0.042
CCC(=O)OC [methyl propanoate] + CCCCCCCCCCCCn1cc[n+](C)c1.O=S(=O)([N-]S(=O)(=O)C(F)(F)F)C(F)(F)F	0.531 ± 0.039	0.557 ± 0.04	0.583 ± 0.041	0.608 ± 0.043	0.634 ± 0.044	0.659 ± 0.045
CC1CCCCC1 [methylcyclohexane] + CCCCCCCCCCCCn1cc[n+](C)c1.O=S(=O)([N-]S(=O)(=O)C(F)(F)F)C(F)(F)F	2.42 ± 0.16	2.46 ± 0.17	2.49 ± 0.17	2.52 ± 0.17	2.55 ± 0.17	2.58 ± 0.18
CCCCCCCCC [nonane] + CCCCCCCCCCCCn1cc[n+](C)c1.O=S(=O)([N-]S(=O)(=O)C(F)(F)F)C(F)(F)F	4.92 ± 0.34	4.97 ± 0.34	5.03 ± 0.34	5.08 ± 0.35	5.13 ± 0.35	5.17 ± 0.35
C=CCCCCCC [oct-1-ene] + CCCCCCCCCCCCn1cc[n+](C)c1.O=S(=O)([N-]S(=O)(=O)C(F)(F)F)C(F)(F)F	3.03 ± 0.21	3.1 ± 0.21	3.17 ± 0.22	3.23 ± 0.22	3.29 ± 0.22	3.35 ± 0.23
CCCCCCCC [octane] + CCCCCCCCCCCCn1cc[n+](C)c1.O=S(=O)([N-]S(=O)(=O)C(F)(F)F)C(F)(F)F	4.17 ± 0.28	4.22 ± 0.29	4.27 ± 0.29	4.32 ± 0.29	4.37 ± 0.3	4.42 ± 0.3
CCCCCO [pentan-1-ol] + CCCCCCCCCCCCn1cc[n+](C)c1.O=S(=O)([N-]S(=O)(=O)C(F)(F)F)C(F)(F)F	1.52 ± 0.1	1.46 ± 0.1	1.4 ± 0.09	1.35 ± 0.09	1.3 ± 0.08	1.26 ± 0.08
CCCC(C)=O [pentan-2-one] + CCCCCCCCCCCCn1cc[n+](C)c1.O=S(=O)([N-]S(=O)(=O)C(F)(F)F)C(F)(F)F	0.421 ± 0.035	0.445 ± 0.036	0.468 ± 0.037	0.492 ± 0.037	0.516 ± 0.038	0.539 ± 0.039
CCC(=O)CC [pentan-3-one] + CCCCCCCCCCCCn1cc[n+](C)c1.O=S(=O)([N-]S(=O)(=O)C(F)(F)F)C(F)(F)F	0.418 ± 0.035	0.444 ± 0.036	0.47 ± 0.037	0.496 ± 0.038	0.521 ± 0.039	0.546 ± 0.04
CCCCC [pentane] + CCCCCCCCCCCCn1cc[n+](C)c1.O=S(=O)([N-]S(=O)(=O)C(F)(F)F)C(F)(F)F	2.55 ± 0.17	2.6 ± 0.18	2.66 ± 0.18	2.71 ± 0.18	2.76 ± 0.19	2.81 ± 0.19
CCCO [propan-1-ol] + CCCCCCCCCCCCn1cc[n+](C)c1.O=S(=O)([N-]S(=O)(=O)C(F)(F)F)C(F)(F)F	1.45 ± 0.1	1.36 ± 0.09	1.29 ± 0.08	1.22 ± 0.08	1.16 ± 0.07	1.11 ± 0.07
CC(C)O [propan-2-ol] + CCCCCCCCCCCCn1cc[n+](C)c1.O=S(=O)([N-]S(=O)(=O)C(F)(F)F)C(F)(F)F	1.34 ± 0.09	1.26 ± 0.08	1.18 ± 0.08	1.12 ± 0.07	1.07 ± 0.07	1.02 ± 0.06
CCCc1ccccc1 [propylbenzene] + CCCCCCCCCCCCn1cc[n+](C)c1.O=S(=O)([N-]S(=O)(=O)C(F)(F)F)C(F)(F)F	1.1 ± 0.07	1.15 ± 0.07	1.21 ± 0.08	1.25 ± 0.08	1.3 ± 0.08	1.35 ± 0.09
c1ccncc1 [pyridine] + CCCCCCCCCCCCn1cc[n+](C)c1.O=S(=O)([N-]S(=O)(=O)C(F)(F)F)C(F)(F)F	0.387 ± 0.034	0.404 ± 0.034	0.42 ± 0.04	0.435 ± 0.035	0.451 ± 0.036	0.466 ± 0.036
C=Cc1ccccc1 [styrene] + CCCCCCCCCCCCn1cc[n+](C)c1.O=S(=O)([N-]S(=O)(=O)C(F)(F)F)C(F)(F)F	0.632 ± 0.044	0.666 ± 0.045	0.702 ± 0.047	0.736 ± 0.049	0.771 ± 0.05	0.804 ± 0.052
C1CCOC1 [tetrahydrofuran] + CCCCCCCCCCCCn1cc[n+](C)c1.O=S(=O)([N-]S(=O)(=O)C(F)(F)F)C(F)(F)F	0.394 ± 0.034	0.417 ± 0.035	0.44 ± 0.04	0.462 ± 0.036	0.484 ± 0.037	0.508 ± 0.038
c1ccsc1 [thiophene] + CCCCCCCCCCCCn1cc[n+](C)c1.O=S(=O)([N-]S(=O)(=O)C(F)(F)F)C(F)(F)F	0.559 ± 0.04	0.579 ± 0.041	0.6 ± 0.042	0.62 ± 0.043	0.639 ± 0.044	0.658 ± 0.045
Cc1ccccc1 [toluene] + CCCCCCCCCCCCn1cc[n+](C)c1.O=S(=O)([N-]S(=O)(=O)C(F)(F)F)C(F)(F)F	0.699 ± 0.047	0.732 ± 0.048	0.765 ± 0.05	0.8 ± 0.052	0.832 ± 0.054	0.864 ± 0.055
O [water] + CCCCCCCCCCCCn1cc[n+](C)c1.O=S(=O)([N-]S(=O)(=O)C(F)(F)F)C(F)(F)F	4.49 ± 0.31	4.02 ± 0.27	3.64 ± 0.25	3.31 ± 0.23	3.03 ± 0.21	2.78 ± 0.19
